Columns and labels:
MHPH6 [1] = biological target: T1, MHPH6 (Microbacterium maritypicum, UniProt D6R8X8); test: Uptake assay using intact cells of E. coli BLR/pSHP11H (RI-labelled substrate); type: cell-based; settings: for initial uptake rate / uptake amount 5 minutes after the addition of the substrate: induced E. coli BLR/pSHP11H, 25 μM substrate; for initial uptake rate: data at 15 seconds after substrate addition; for uptake amount 5 minutes after the addition of the substrate: pH 6.6, 25° C., per dry cell weight
T1 construct: expressed in transfected cells; host or cells: E. coli BLR transformed with pSHP11H (pTTQ18 derivative), IPTG-induced
T1 sequence (D6R8X8 with tags, fused parts or gaps): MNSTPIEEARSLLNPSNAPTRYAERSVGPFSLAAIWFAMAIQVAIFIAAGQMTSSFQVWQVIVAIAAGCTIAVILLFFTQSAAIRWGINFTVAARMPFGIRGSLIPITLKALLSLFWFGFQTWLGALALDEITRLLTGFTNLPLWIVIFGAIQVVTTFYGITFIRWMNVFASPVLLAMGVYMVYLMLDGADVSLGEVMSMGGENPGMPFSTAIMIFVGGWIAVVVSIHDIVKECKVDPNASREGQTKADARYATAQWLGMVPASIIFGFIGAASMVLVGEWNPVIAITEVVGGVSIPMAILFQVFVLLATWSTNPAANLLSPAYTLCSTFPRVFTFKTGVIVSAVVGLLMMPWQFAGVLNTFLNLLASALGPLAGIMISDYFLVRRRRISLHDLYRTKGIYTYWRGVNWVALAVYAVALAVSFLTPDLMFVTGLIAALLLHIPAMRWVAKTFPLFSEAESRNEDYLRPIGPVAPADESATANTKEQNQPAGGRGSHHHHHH
Text: The activity of the hydantoin transporter can be measured by an uptake assay using intact cells. The uptake assay using intact cells may be carried out in accordance with the method of West, and Henderson (I. C. West (1970) Lactose transport coupled to proton movements in Escherichia coli, Biochem. Biophys. Res. Commun. 41: 655-661; P. J. F. Henderson and A. J. S. Macpherson (1986), Assay, genetics, proteins, and reconstitution of proton-linked galactose, arabinose, and xylose transport systems of Escherichia coli, Methods Enzymol. 125: 387-429).
Specifically, the uptake reaction may be carried out by adding an RI-labelled substrate (^3H—BH (benzyl hydantoin), ^3H—IMH (indolylmethyl hydantoin)) to a suspension of the cells that express the hydantoin transporter. After initiating the reaction, sampling may be conducted at time intervals. Immediately after sampling, each aliquot may be collected by a filter of 0.45 μm pore size (preincubated in a washing liquid of 150 mM KCl, 5 mM MES (pH 6.6)) and washed thoroughly by the rinsing liquid. Thereafter, by measuring radioactivity remaining on the filter with a liquid scintillation counter, the substrate uptaken into the cells is quantified, and the hydantoin-transporter activity can be determined.
The methods of West (I. C. West (1970), Lactose transport coupled to proton movements in Escherichia coli. Biochem. Biophys. Res. Commun. 41: 655-661.) and Henderson (P. J. F. Henderson and A. J. S. Macpherson (1986), Assay, genetics, proteins, and reconstitution of proton-linked galactose, arabinose, and xylose transport systems of Escherichia coli, Methods Enzymol. 125: 387-429.) were employed.
The collected cells were washed three times with 150 mM KCl, 5 mM MES (2-[N-Morpholino]ethanesulphonic acid) (pH 6.6) and were then used in the assay. The basic reaction conditions included uptake initiation by adding glycerol to a final concentration of 20 mM to a cell suspension having an absorbance at about A680 of approximately 2 to 4, followed by aeration at 25° C. for 3 minutes, and then addition of an RI-labelled substrate (relative RI activity: ^3H—BH 107 Bq/nmol, ^3H—IMH 241 Bq/nmol) to a final concentration of 25 μM. After the onset of the reaction (aeration was continued), sampling was done over time. Immediately after the sampling, each aliquot was passed through a filter with a pore size of 0.45 μm (pre-incubated in a washing solution of 150 mM KCl and 5 mM MES (pH 6.6)) which was then washed sufficiently with a washing solution. The radiation remaining on the filter was measured by a liquid scintillation counter. The uptake activity was expressed in terms of the dry cell weight that was calculated by taking the absorbance A680=1 as the dry cell concentration of 0.68 mg/ml (Ashworth and Kornberg, Biological Science, 165(999):179-188 (1966)). Furthermore, the initial uptake rate was calculated based on the data obtained at 15 seconds after the addition of substrate, and expressed in terms of the uptake amount per minute.
In the measurement of the inhibitory activity of the inhibitor, the inhibitor was added at the time of onset of aeration. That is, it was pre-incubated with the cells for 3 minutes prior to the substrate addition. The inhibitor used was 2,4-dinitrophenol (DNP), and the final concentration during the reaction was 20 mM.
For varying the pH of the reaction liquid, 10 mM potassium acetate (pH 4.0), 5 mM MES (pH 4.9, 6.1, 6.6, 7.1, 7.9), 10 mM Tris-HCl (pH 8.0) and 10 mM glycin-NaOH (pH 10.0) were used when appropriate.

MHPH6 [2] = biological target: T1, MHPH6; test: Substrate screening: competitive inhibition of 3H-L-BH uptake by E. coli BLR/pSHP11H; type: cell-based, Microbacterium liquefaciens AJ3912; settings: for competitive inhibitory activity against L-BH uptake (in words): 250 μM cold candidate; for competitive inhibitory activity against L-BH uptake (in words) / uptake activity of 3H-L-BH (relative activity, no compound added = 100%): uptake after 3 minutes; for uptake activity of 3H-L-BH (relative activity, no compound added = 100%): 250 μM cold compound; for relative affinity for MHPH6 (affinity of L-BH = 1): curve-fitted assuming simple competitive inhibition, variety of concentrations
Protocol: 25 μM of ^3H-L-BH was employed as the RI-labeled substrate in the above-described reaction using intact cells, and a reaction liquid was prepared by adding 250 μM of a candidate substrate (cold). The uptake amount of ^3H-L-BH after 3 minutes from the addition thereof was compared with the amount without the candidate substrate, to calculate the competitive inhibitory activity of each candidate substrate against L-BH, for evaluating the potentiality of each candidate substance as the substrate for MHP.
Affinity of a variety of compounds to MHPH6 was measured based on the competitive inhibitory activity thereof against L-BH uptake by E. coli BLR/pSHP11H, to search for substrates for MHPH6 (FIG. 8). […] When the four compounds showing strong inhibitive activity were added, the uptake activities of ^3H-L-BH (the relative activity with respect to when not adding any compound as 100%) were 7% (L-BH, theoretical value 9%), 47% (D-BH), 3% (L-IMH) and 24% (D- IMH).
The competitive inhibition experiments were carried out, as for substrate screening, with a variety of substrate concentrations. As a result, the affinity of D- and L-BH and D- and L-IMH for MHPH6 was different from one another, and the intensity of the affinity was in the order of L-IMH (solid triangle), L-BH (solid circle), D-IMH (open triangle) and D-BH (open circle) from the strongest. Assuming that ^3H-L-BH and the added cold compound were under simple competitive inhibition, the experimental results were curve-fitted. As a result, the relative affinity for each compound was calculated to be 5.32 (L-IMH), 1.05 (L-BH, experimental value), 0.96 (D-IMH), and 0.20 (D-BH), with respect to the affinity of L-BH and MHPH6 being 1.

[3] = CD spectroscopy heat stability of purified MHPH6; type: physicochemical
Protocol: The buffer solution suspending the purified MHPH6 was replaced by 10 mM sodium phosphate (pH 7.6) with 0.05% (w/v) DDM, using an ultrafiltration apparatus (Centricon C50, Millipore). In this buffer solution, the protein concentration was adjusted to 50 μg/ml, and the CD spectroscopy was carried out at 10° C. (JASCO J-715 Spectropolarimeter). The measurement was performed at a wavelength ranging from 190 to 260 nm, and the average value of twenty measurements was taken. Furthermore, the change in the secondary structure of MHPH6 (heat stability) was observed by measuring the change of the CD unit value at a wavelength of 222 nm as the temperature of the sample was varied from 10° C.→90° C.→10° C. (the temperature change was made 10° C. at a time, and the length of time at each temperature was approximately 10 minutes).

[4] = CD at 222 nm, 10 mM sodium phosphate pH 7.6, 0.05% DDM

Molecule: O=[N+]([O-])c1ccc(O)c([N+](=O)[O-])c1 [DNP, 2,4-dinitrophenol, reference compound]
- effect on L-IMH uptake, induced sample (MHPH6 [1]; DNP 20 mM, pre-incubated 3 minutes, induced sample): decreased the amount of L-IMH uptake
- effect on L-IMH uptake, uninduced sample (MHPH6 [1]; DNP 20 mM, pre-incubated 3 minutes, uninduced sample): substantially no effect

Molecule: O=C1NC(=O)[C@@H](Cc2ccccc2)N1 [D-BH]
- competitive inhibitory activity against L-BH uptake (in words) (MHPH6 [2]; 25 μM 3H-L-BH): strong activity of competitive inhibition
- uptake activity of 3H-L-BH (relative activity, no compound added = 100%) (MHPH6 [2]; 25 μM 3H-L-BH): 47%
- relative affinity for MHPH6 (affinity of L-BH = 1) (MHPH6 [2]): 0.20

Molecule: O=C1NC(=O)[C@@H](Cc2c[nH]c3ccccc23)N1 [D-IMH]
- competitive inhibitory activity against L-BH uptake (in words) (MHPH6 [2]; 25 μM 3H-L-BH): strong activity of competitive inhibition
- uptake activity of 3H-L-BH (relative activity, no compound added = 100%) (MHPH6 [2]; 25 μM 3H-L-BH): 24%
- relative affinity for MHPH6 (affinity of L-BH = 1) (MHPH6 [2]): 0.96

Molecule: CC(C)[C@@H]1NC(=O)NC1=O [5-L-isopropyl hydantoin]
- competitive inhibitory activity against L-BH uptake (in words) (MHPH6 [2]; 25 μM 3H-L-BH): Weaker inhibitory activity

Molecule: CC(C)CC1NC(=O)NC1=O (racemic) [5-DL-isobutyl hydantoin]
- competitive inhibitory activity against L-BH uptake (in words) (MHPH6 [2]; 25 μM 3H-L-BH): Weaker inhibitory activity

Molecule: NC(=O)NC1NC(=O)NC1=O (centres unmarked) [allantoin, reference compound]
- competitive inhibitory activity against L-BH uptake (in words) (MHPH6 [2]; 25 μM 3H-L-BH): did not result in any inhibition

Molecule: CC(C)C[C@@H]1NC(=O)NC1=O [5-L-isobutyl hydantoin]
- competitive inhibitory activity against L-BH uptake (in words) (MHPH6 [2]; 25 μM 3H-L-BH): Weaker inhibitory activity

Molecule: CC(C)C1NC(=O)NC1=O (racemic) [5-DL-isopropyl hydantoin]
- competitive inhibitory activity against L-BH uptake (in words) (MHPH6 [2]; 25 μM 3H-L-BH): Weaker inhibitory activity

Molecule: O=C1NC(=O)C(Cc2ccc(O)cc2)N1 (racemic) [5-DL-p-hydroxybenzyl hydantoin]
- competitive inhibitory activity against L-BH uptake (in words) (MHPH6 [2]; 25 μM 3H-L-BH): Weaker inhibitory activity

Molecule: O=C1NC(=O)C(Cc2ccccc2)N1 [L-BH, 5-L-benzyl hydantoin]
- uptake activity of 3H-L-BH, theoretical value (MHPH6 [2]; 250 μM cold L-BH, 25 μM 3H-L-BH): 9%
- competitive inhibitory activity against L-BH uptake (in words) (MHPH6 [2]; 25 μM 3H-L-BH): strong activity of competitive inhibition
- uptake activity of 3H-L-BH (relative activity, no compound added = 100%) (MHPH6 [2]; 25 μM 3H-L-BH): 7%
- relative affinity for MHPH6 (affinity of L-BH = 1) (MHPH6 [2]): 1.05
- initial uptake rate (MHPH6 [1]): 0.64 nmol/mg/min
- uptake amount 5 minutes after the addition of the substrate (MHPH6 [1]): 0.27 nmol/mg

Molecule: O=C1NC(=O)[C@H](Cc2c[nH]c3ccccc23)N1 [L-IMH, 5-L-indolylmethyl hydantoin]
- competitive inhibitory activity against L-BH uptake (in words) (MHPH6 [2]; 25 μM 3H-L-BH): strong activity of competitive inhibition
- uptake activity of 3H-L-BH (relative activity, no compound added = 100%) (MHPH6 [2]; 25 μM 3H-L-BH): 3%
- affinity relative to that of L-BH (estimated) (MHPH6 [2]; L-IMH versus L-BH): approximately 5 times
- relative affinity for MHPH6 (affinity of L-BH = 1) (MHPH6 [2]): 5.32
- initial uptake rate (MHPH6 [1]): 2.5 nmol/mg/min
- uptake amount 5 minutes after the addition of the substrate (MHPH6 [1]): 0.91 nmol/mg
- initial uptake rate as compared with the initial rate at pH 6.6 (MHPH6 [1]; pH 4.0): approximately 10%
- initial uptake rate as compared with the initial rate at pH 6.6 (MHPH6 [1]; pH 10.0): approximately 10%
- pH at which initial uptake rate is maximal (MHPH6 [1]; pH varied between 4.0 and 10.0, induced and uninduced samples): 6.6
- initial uptake rate, L-IMH relative to L-BH (MHPH6 [1]; ratio L-IMH / L-BH): 3.9 times
- uptake amount 5 minutes after addition of substrate, L-IMH relative to L-BH (MHPH6 [1]; ratio L-IMH / L-BH): 3.4 times

Molecule: CC1NC(=O)NC1=O (racemic) [5-DL-methyl hydantoin]
- competitive inhibitory activity against L-BH uptake (in words) (MHPH6 [2]; 25 μM 3H-L-BH): Weaker inhibitory activity

B1: MHPH6: MHP hydantoin transporter protein containing the RGSHis6-Tag at the C-terminal (SEQ ID No. 3/4) (protein)
chain: MNSTPIEEARSLLNPSNAPTRYAERSVGPFSLAAIWFAMAIQVAIFIAAGQMTSSFQVWQVIVAIAAGCTIAVILLFFTQSAAIRWGINFTVAARMPFGIRGSLIPITLKALLSLFWFGFQTWLGALALDEITRLLTGFTNLPLWIVIFGAIQVVTTFYGITFIRWMNVFASPVLLAMGVYMVYLMLDGADVSLGEVMSMGGENPGMPFSTAIMIFVGGWIAVVVSIHDIVKECKVDPNASREGQTKADARYATAQWLGMVPASIIFGFIGAASMVLVGEWNPVIAITEVVGGVSIPMAILFQVFVLLATWSTNPAANLLSPAYTLCSTFPRVFTFKTGVIVSAVVGLLMMPWQFAGVLNTFLNLLASALGPLAGIMISDYFLVRRRRISLHDLYRTKGIYTYWRGVNWVALAVYAVALAVSFLTPDLMFVTGLIAALLLHIPAMRWVAKTFPLFSEAESRNEDYLRPIGPVAPADESATANTKEQNQPAGGRGSHHHHHH
modifications: C-terminal RGSHis6 tag; RGSH6
- temperature at which higher structure began to be destroyed [3, 4]: ≥ 30 °C
- temperature at which higher structure was almost completely destroyed [3, 4]: 70 °C
- reversibility of thermal denaturation ([3]; temperature 10→90→10° C.): irreversible
